Molecular target: T1, mouse TRPM3α2 (mTRPM3) ion channel (Mus musculus, UniProt J9SQF3)
T1 construct: expressed in transfected cells; host or cells: flip-in HEK293
Assay: TRPM3 ion channel driven Ca2+ uptake (Fluo-4 AM assay, pregnenolone sulfate stimulated)
Assay type: cell-based
Conditions: TRPM3 overexpressing flip-in HEK293 cells, channel opened with pregnenolone sulfate (PS) 50 μM, 2.4 mM Ca2+
Method: In order to monitor the inhibition of the mouse TRPM3α2 (mTRPM3) ion channel by the compounds of the invention, a cellular system making use of an mTRPM3alpha2 or hTRPM3 overexpressing cell line (flip-in HEK293) was used. The TRPM3 channel was stimulated/opened with Pregnenolone sulfate (PS) (50 μM) which results in Ca^2+ influx.
For mTRPM3, the intracellular Ca^2+ was measured with a Calcium responsive dye, Fluor-4 AM ester (Invitrogen). Cells were cultured until a confluence of 80-90%, washed with Versene (Invitrogen) and detached from the surface by a short incubation with 0.05% Trypsin (Invitrogen). The trypsination process was stopped by the addition of complete cell culture medium (DMEM, glutamax, 10% FCS, NEAA, Pen-Strep). Cells were collected and resuspended in Krebs buffer without Calcium at RT.
Prior the cell seeding (±2000 cells/well into a black, 384 well plate (Greiner)) the diluted compound was added in the assay plate, together with the PS dissolved in Krebs buffer containing Calcium. […] Directly after cell addition the plates were read on an Envision fluorescence reader (Perkin Elmer) by an Excitation of 485 nm and emission at 535 nm.
Channel inhibition was calculated compared to a non-PS stimulated control versus a condition stimulated with PS (50 μM) with vehicle. The ability of a the compounds of the invention to inhibit this activity was determined as: Percentage inhibition=[1−((RFU determined for sample with test compound present−RFU determined for sample with positive control inhibitor) divided by (RFU determined in the presence of vehicle−RFU determined for sample with positive control inhibitor))]*100.
The activities of the Example compounds […] tested are depicted in the table below. The activity ranges A, B and C refer to IC50 values in the Fluo-4 AM assay as follows: […]

T1 sequence (J9SQF3 1-1709 isoform J9SQF3-12): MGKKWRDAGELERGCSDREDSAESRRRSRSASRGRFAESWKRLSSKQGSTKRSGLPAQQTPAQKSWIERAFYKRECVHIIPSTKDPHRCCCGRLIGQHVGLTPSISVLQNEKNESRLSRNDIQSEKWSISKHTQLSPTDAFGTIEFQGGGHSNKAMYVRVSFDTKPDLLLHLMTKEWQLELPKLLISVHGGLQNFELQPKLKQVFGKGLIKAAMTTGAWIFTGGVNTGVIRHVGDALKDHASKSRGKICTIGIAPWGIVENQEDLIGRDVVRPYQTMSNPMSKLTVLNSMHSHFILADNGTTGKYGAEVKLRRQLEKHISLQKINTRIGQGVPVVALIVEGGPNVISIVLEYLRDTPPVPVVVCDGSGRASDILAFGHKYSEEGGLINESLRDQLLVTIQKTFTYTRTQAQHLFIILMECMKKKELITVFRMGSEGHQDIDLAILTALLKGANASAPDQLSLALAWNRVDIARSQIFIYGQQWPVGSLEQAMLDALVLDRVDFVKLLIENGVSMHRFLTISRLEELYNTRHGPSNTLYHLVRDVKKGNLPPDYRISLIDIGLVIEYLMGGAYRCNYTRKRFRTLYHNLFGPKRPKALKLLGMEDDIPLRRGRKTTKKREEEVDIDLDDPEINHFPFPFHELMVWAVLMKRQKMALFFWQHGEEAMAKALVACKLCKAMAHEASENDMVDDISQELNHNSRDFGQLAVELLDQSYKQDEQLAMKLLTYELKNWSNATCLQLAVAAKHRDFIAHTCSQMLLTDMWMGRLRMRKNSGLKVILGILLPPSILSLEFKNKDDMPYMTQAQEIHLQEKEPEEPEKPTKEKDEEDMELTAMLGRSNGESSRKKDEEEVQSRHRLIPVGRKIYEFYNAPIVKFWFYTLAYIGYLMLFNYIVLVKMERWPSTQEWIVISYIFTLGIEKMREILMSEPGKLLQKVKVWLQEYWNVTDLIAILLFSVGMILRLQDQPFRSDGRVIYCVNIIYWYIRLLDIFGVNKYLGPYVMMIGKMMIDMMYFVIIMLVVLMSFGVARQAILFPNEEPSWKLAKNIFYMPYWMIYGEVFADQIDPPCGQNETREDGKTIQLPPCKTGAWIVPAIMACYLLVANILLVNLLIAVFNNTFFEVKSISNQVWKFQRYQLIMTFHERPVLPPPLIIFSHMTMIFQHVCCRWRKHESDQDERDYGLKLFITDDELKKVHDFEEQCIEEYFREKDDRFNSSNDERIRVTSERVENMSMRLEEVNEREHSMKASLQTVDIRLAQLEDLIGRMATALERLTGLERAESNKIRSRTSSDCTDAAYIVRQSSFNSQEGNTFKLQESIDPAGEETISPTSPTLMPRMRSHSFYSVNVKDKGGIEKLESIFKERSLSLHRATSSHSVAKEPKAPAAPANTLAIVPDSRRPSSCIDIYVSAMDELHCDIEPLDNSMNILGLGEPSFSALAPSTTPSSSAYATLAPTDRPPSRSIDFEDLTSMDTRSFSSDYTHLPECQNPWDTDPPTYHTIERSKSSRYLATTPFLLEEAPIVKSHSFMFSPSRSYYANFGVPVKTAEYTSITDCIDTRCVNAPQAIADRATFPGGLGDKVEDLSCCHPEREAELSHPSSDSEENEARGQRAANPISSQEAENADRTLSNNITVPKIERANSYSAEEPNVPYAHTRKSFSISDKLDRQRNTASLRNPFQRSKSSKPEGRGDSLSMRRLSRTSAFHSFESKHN

Compound | IC50 [nM]
Cc1cc2ccc(OCc3ccccn3)cn2c1C(=O)NC(C)(CO)C(N)=O (single isomer, unassigned) [Cpd 014 - En2] | 1000 to 20000
Cc1cc2ccc(OCc3ccccn3)cn2c1C(=O)NC1(CO)CCNC1=O (single isomer, unassigned) [Cpd 016 - En2] | 1000 to 20000
Cc1cc2ccc(OCc3ccccn3)cn2c1C(=O)NC1CNCCC1(F)F (single isomer, unassigned) [Cpd 017 - En1, N-(4,4-difluoropiperidin-3-yl)-2-methyl-6-[(pyridin-2-yl)methoxy]indolizine-3-carboxamide] | 1000 to 20000
Cc1cc2ccc(OCc3ccccn3)cn2c1C(=O)NC1CNCCC1(F)F (single isomer, unassigned) [Cpd 017 - En2, N-(4,4-difluoropiperidin-3-yl)-2-methyl-6-[(pyridin-2-yl)methoxy]indolizine-3-carboxamide] | > 20000
Cc1cc2ccc(OCc3ccccn3)cn2c1C(=O)NC(C)C(N)=O (single isomer, unassigned) [Cpd 018 - En1] | 1000 to 20000
Cc1cc2ccc(OCc3ccccn3)cn2c1C(=O)NC(C)C(N)=O (single isomer, unassigned) [Cpd 018 - En2] | 1000 to 20000
Cc1cc2ccc(OCC3CC3)cn2c1C(=O)NC(C)(CO)C(N)=O (single isomer, unassigned) [Cpd 019 - En2] | 1000 to 20000
Cc1cc2ccc(OCC3CC3)cn2c1C(=O)NC1(CO)CCNC1=O (single isomer, unassigned) [Cpd 021 - En2] | 1000 to 20000
CC(=O)C(C)NC(=O)c1c(C)cc2ccc(OCC3CC3)cn12 (single isomer, unassigned) [Cpd 023 - En1] | 1000 to 20000
CC(=O)C(C)NC(=O)c1c(C)cc2ccc(OCC3CC3)cn12 (single isomer, unassigned) [Cpd 023 - En2] | 1000 to 20000
Cc1cc2ccc(OCC(F)F)cn2c1C(=O)NC1CNCCC1(F)F (single isomer, unassigned) [Cpd 027 - En1] | 1000 to 20000
Cc1cc2ccc(OCC(F)F)cn2c1C(=O)NC1CNCCC1(F)F (single isomer, unassigned) [Cpd 027 - En2] | > 20000
CC(=O)C(C)NC(=O)c1c(C)cc2ccc(OCC(F)F)cn12 (single isomer, unassigned) [Cpd 028 - En1] | > 20000
CC(=O)C(C)NC(=O)c1c(C)cc2ccc(OCC(F)F)cn12 (single isomer, unassigned) [Cpd 028 - En2] | > 20000
Cc1ncc(COc2ccc3cc(C)c(C(=O)NC(C)(CO)C(N)=O)n3c2)s1 (single isomer, unassigned) [Cpd 029 - En2, 3-hydroxy-2-methyl-2-({2-methyl-6-[(2-methyl-1,3-thiazol-5-yl)methoxy]indolizin-3-yl}formamido)propanamide] | 1000 to 20000
COCC(C)(CO)NC(=O)c1c(C)cc2ccc(OCc3ccccn3)cn12 (single isomer, unassigned) [Cpd 032 - En1] | 1000 to 20000
Cc1cc2ccc(OCc3ccccn3)cn2c1C(=O)NC(CO)C(N)=O (single isomer, unassigned) [Cpd 033 - En1] | 1000 to 20000
Cc1cc2ccc(OCc3ccccc3)cn2c1C(=O)NC(C)(CO)CC(F)F (single isomer, unassigned) [Cpd 035 - En2] | 1000 to 20000
Cc1cc2ccc(OCc3ccccn3)cn2c1C(=O)NC(C)(CO)CC(F)F (single isomer, unassigned) [Cpd 036 - En2] | 1000 to 20000
Cc1cc2ccc(OCc3cccnc3)cn2c1C(=O)NC1(CO)CCNC1=O (single isomer, unassigned) [Cpd 037 - En2] | 1000 to 20000
COc1ncccc1COc1ccc2cc(C)c(C(=O)NC3(CO)CCNC3=O)n2c1 (single isomer, unassigned) [Cpd 038 - En2] | 1000 to 20000
Cc1cc2ccc(OCc3cccnc3C(F)(F)F)cn2c1C(=O)NC1(CO)CCNC1=O (single isomer, unassigned) [Cpd 039 - En2] | 1000 to 20000
Cc1cc2ccc(OCc3c(F)cnn3C)cn2c1C(=O)NC1(CO)CCNC1=O (single isomer, unassigned) [Cpd 040 - En2] | 1000 to 20000
Cc1cc2ccc(OCc3cnccn3)cn2c1C(=O)NC(CO)CC(F)(F)F (single isomer, unassigned) [Cpd 041 - En1] | 1000 to 20000
Cc1cc2ccc(OCc3cnccn3)cn2c1C(=O)NC(CO)CC(F)(F)F (single isomer, unassigned) [Cpd 041 - En2] | > 20000
Cc1cc2ccc(OCc3cccnc3)cn2c1C(=O)NC(CO)CC(F)(F)F (single isomer, unassigned) [Cpd 042 - En2] | 1000 to 20000
COc1ncccc1COc1ccc2cc(C)c(C(=O)NC(CO)CC(F)(F)F)n2c1 (single isomer, unassigned) [Cpd 043 - En2] | > 20000
Cc1cc2ccc(OCc3cccnc3C(F)(F)F)cn2c1C(=O)NC(CO)CC(F)(F)F (single isomer, unassigned) [Cpd 044 - En1] | > 20000

The remaining lines, values ahead:

IC50 [nM] | Compound
< 1000 | Cc1cc2ccc(OCc3ccccc3F)cn2c1C(=O)NC(C)(CO)C(N)=O (single isomer, unassigned) [Cpd 005 - En1, 2-({6-[(2-fluorophenyl)methoxy]-2-methylindolizin-3-yl}formamido)-3-hydroxy-2-methylpropanamide]
< 1000 | Cc1cc2ccc(OCc3ccccc3F)cn2c1C(=O)NC(C)(CO)C(N)=O (single isomer, unassigned) [Cpd 005 - En2, 2-({6-[(2-fluorophenyl)methoxy]-2-methylindolizin-3-yl}formamido)-3-hydroxy-2-methylpropanamide]
< 1000 | Cc1cc2ccc(OCc3ccccc3F)cn2c1C(=O)NC1(CO)CCNC1=O (single isomer, unassigned) [Cpd 007 - En1]
1000 to 20000 | Cc1cc2ccc(OCc3ccccc3F)cn2c1C(=O)NC1(CO)CCNC1=O (single isomer, unassigned) [Cpd 007 - En2]
< 1000 | Cc1cc2ccc(OCc3ccccn3)cn2c1C(=O)NC(C)(CO)C(N)=O (single isomer, unassigned) [Cpd 014 - En1]
< 1000 | Cc1cc2ccc(OCc3ccccn3)cn2c1C(=O)NC1(CO)CCNC1=O (single isomer, unassigned) [Cpd 016 - En1]
< 1000 | Cc1cc2ccc(OCC3CC3)cn2c1C(=O)NC(C)(CO)C(N)=O (single isomer, unassigned) [Cpd 019 - En1]
< 1000 | Cc1cc2ccc(OCC3CC3)cn2c1C(=O)NC1(CO)CCNC1=O (single isomer, unassigned) [Cpd 021 - En1]
< 1000 | Cc1ncc(COc2ccc3cc(C)c(C(=O)NC(C)(CO)C(N)=O)n3c2)s1 (single isomer, unassigned) [Cpd 029 - En1, 3-hydroxy-2-methyl-2-({2-methyl-6-[(2-methyl-1,3-thiazol-5-yl)methoxy]indolizin-3-yl}formamido)propanamide]
< 1000 | COCC(C)(CO)NC(=O)c1c(C)cc2ccc(OCc3ccccn3)cn12 (single isomer, unassigned) [Cpd 032 - En2]
< 1000 | Cc1cc2ccc(OCc3ccccn3)cn2c1C(=O)NC(CO)C(N)=O (single isomer, unassigned) [Cpd 033 - En2]
< 1000 | Cc1cc2ccc(OCc3ccccc3)cn2c1C(=O)NC(CO)C(N)=O (single isomer, unassigned) [Cpd 034 - En1]
< 1000 | Cc1cc2ccc(OCc3ccccc3)cn2c1C(=O)NC(CO)C(N)=O (single isomer, unassigned) [Cpd 034 - En2]
< 1000 | Cc1cc2ccc(OCc3ccccc3)cn2c1C(=O)NC(C)(CO)CC(F)F (single isomer, unassigned) [Cpd 035 - En1]
< 1000 | Cc1cc2ccc(OCc3ccccn3)cn2c1C(=O)NC(C)(CO)CC(F)F (single isomer, unassigned) [Cpd 036 - En1]
< 1000 | Cc1cc2ccc(OCc3cccnc3)cn2c1C(=O)NC1(CO)CCNC1=O (single isomer, unassigned) [Cpd 037 - En1]
< 1000 | COc1ncccc1COc1ccc2cc(C)c(C(=O)NC3(CO)CCNC3=O)n2c1 (single isomer, unassigned) [Cpd 038 - En1]
< 1000 | Cc1cc2ccc(OCc3cccnc3C(F)(F)F)cn2c1C(=O)NC1(CO)CCNC1=O (single isomer, unassigned) [Cpd 039 - En1]
< 1000 | Cc1cc2ccc(OCc3c(F)cnn3C)cn2c1C(=O)NC1(CO)CCNC1=O (single isomer, unassigned) [Cpd 040 - En1]
< 1000 | Cc1cc2ccc(OCc3cccnc3)cn2c1C(=O)NC(CO)CC(F)(F)F (single isomer, unassigned) [Cpd 042 - En1]
< 1000 | COc1ncccc1COc1ccc2cc(C)c(C(=O)NC(CO)CC(F)(F)F)n2c1 (single isomer, unassigned) [Cpd 043 - En1]
< 1000 | Cc1cc2ccc(OCc3cccnc3C(F)(F)F)cn2c1C(=O)NC(CO)CC(F)(F)F (single isomer, unassigned) [Cpd 044 - En2]

Source: patent US20250376469A1, “INDOLIZINE DERIVATIVES FOR TREATING TRPM3-MEDIATED DISORDERS” (Katholieke Universiteit Leuven, priority 2022, published 2025)
